Data reported in patent US9611262B2, “Substituted 2-azabicycles and their use as orexin receptor modulators” (JANSSEN PHARMACEUTICA NV, priority 2014, dated 2017).

Legend:
human orexin 2 receptor = human orexin 2 receptor (Homo sapiens (Human), UniProt O43614); assay: Human orexin 2 receptor radioligand binding ([3H]-EMPA competition); settings: HEK293 stably expressing human orexin 2 receptor; 2 nM [3H]-EMPA; averages of 2-20 runs; read-out: hOX2 Ki
Procedure: (§1) The in vitro affinity of the compounds of the invention for the rat/human orexin 1 and human orexin 2 receptors was determined by competitive radioligand binding using [^3H](1-(5-(2-fluoro-phenyl)-2-methyl-thiazol-4-yl)-1-((S)-2-(5-phenyl-(1,3,4)oxadiazol-2-ylmethyl)-pyrrolidin-1-yl)-methanone) (Langmead et al., 2004) and [^3H]EMPA (n-ethyl-2[96-methoxy-pyridin-3-yl)-(toluene-2-sulfonyl)-amino]-N-pyridin-3-ylmethyl acetamide), respectively (Langmead et al., 2004, British Journal of Pharmacology 141:340-346; Malherbe et al., 2004, British Journal of Pharmacology 156:1326-41).
(§2) Data are analyzed using pc-Sandy macro and graphed on Graphpad Prism 5. For analysis, each concentration point is averaged from triplicate values and the averaged values are plotted on Graphpad Prism. The IC50 was determined by applying the following equation (GraphPad Prism 5.0, San Diego) for one site competition where X=log (concentration) and Y=specific binding. Top denotes the total [^3H]— (1-(5-(2-fluoro-phenyl)-2-methyl-thiazol-4-yl)-1-((S)-2-(5-phenyl-(1,3,4)oxadiazol-2-ylmethyl)-pyrrolidin-1-yl)-methanone) binding, bottom denotes the nonspecific [^3H]— (1-(5-(2-fluoro-phenyl)-2-methyl-thiazol-4-yl)-1-((S)-2-(5-phenyl-(1,3,4)oxadiazol-2-ylmethyl)-pyrrolidin-1-yl)-methanone) binding. Graphpad Prism calculates Ki value from IC50 and the pre-determined Kd values for [^3H]— (1-(5-(2-fluoro-phenyl)-2-methyl-thiazol-4-yl)-1-((S)-2-(5-phenyl-(1,3,4)oxadiazol-2-ylmethyl)-pyrrolidin-1-yl)-methanone) and [^3H]-EMPA. The Ki for each compound is then uploaded into 3DX. Each run comprises individual compounds in triplicate. The data in Table 1 and Table 2 represent averages from between 2-20 runs
Human Orexin 2 Receptor Radioligand Binding Studies
HEK293 stably expressing human orexin 2 receptor (Genebank accession number NM_001526) were grown to confluency in DMEM (Hyclone, cat # SH30022), 10% FBS, 1× Pen/Strep, 1× NaPyruvate, 10 mM HEPES, 600 μg/ml G418 media on 150 cm^2 tissue culture plates, washed with 5 mM EDTA in PBS (HyClone Dulbecco's Phosphate Buffered Saline 1× with Calcium and Magnesium, Cat # SH30264.01, hereafter referred to simply as PBS) and scraped into 50 ml tubes. After centrifugation (2K×G, 5 min at 4° C.), the supernatant was aspirated and the pellets frozen and stored at −80° C. Cells were resuspended in PBS in the presence of 1 tablet of protease inhibitor cocktail (Roche, Cat. #11836145001) per 50 mL. […] Compounds were solubilized in 100% DMSO (Acros Organics, Cat. #61042-1000) and tested over a range of 7 concentration (from 0.1 nM to 10 μM). The final concentration of DMSO in the reactions is equal to or less than 0.1%. Total and nonspecific binding was determined in the absence and presence of 10 μM almorexant. The total volume of each reaction is 200 μL (20 μL of diluted compounds, 80 μL of [^3H]-EMPA diluted in PBS and 100 μL of the cell suspension). Reactions were run for 60 min at room temperature and terminated by filtration through GF/C filter plates (PerkinElmer, Cat. #6005174) presoaked in 0.3% polyethylenimine using the cell harvester (PerkinElmer Filtermate). The plates were washed 3 times by aspirating 30 ml PBS through the plates. Plates were dried in 55° C. oven for 60 min, scintillation fluid was added, and the radioactivity was counted on a Topcount (Packard).

rat orexin 1 receptor = rat orexin 1 receptor (Rattus norvegicus, UniProt P56718); assay: Rat orexin 1 receptor radioligand binding (competitive); settings: HEK293 cells stably expressing rat orexin 1 receptor; 4 nM radioligand; averages of 2-20 runs; read-out: rOX1 Ki
Procedure: as §1, §2
Rat and Human Orexin 1 Receptor Radioligand Binding Studies
Human Embryonic Kidney 293 cells (HEK293) stably expressing rat orexin 1 receptor (Genebank accession number NM_001525) or Chinese ovary cells (CHO) stably expressing human orexin 1 receptor (Genebank accession number […]) were grown to confluency in DMEM (Hyclone, cat # SH30022), 10% FBS, 1× Pen/Strep, 1× sodium pyruvate, 10 mM HEPES, 600 μg/mL G418 and DMEM/F12 (Gibco, Cat #11039), 10% FBS, 1× Pen/Strep, 600 μg/mL G418 media, respectively on 150 cm^2 tissue culture plates, washed with 5 mM EDTA in PBS (HyClone Dulbecco's Phosphate Buffered Saline 1× with Calcium and Magnesium, Cat # SH30264.01, hereafter referred to simply as PBS) and scraped into 50 ml tubes. After centrifugation (2K×G, 5 min at 4° C.), the supernatant was aspirated and the pellets frozen and stored at −80° C. Cells were resuspended in PBS in the presence of 1 tablet of protease inhibitor cocktail (Roche, Cat. #11836145001) per 50 mL. […] Competition binding experiments in 96 well polypropylene plates were performed using [^3H]— (1-(5-(2-fluoro-phenyl)-2-methyl-thiazol-4-yl)-1-((S)-2-(5-phenyl-(1,3,4)oxadiazol-2-ylmethyl)-pyrrolidin-1-yl)-methanone) (Moraveck Corporation, specific activity=35.3 Ci/mmol), diluted to a 10 nM concentration in PBS (4 nM final). Compounds were solubilized in 100% DMSO (Acros Organics, Cat. #61042-1000) and tested over a range of 7 concentrations (from 0.1 nM to 10 μM). The final concentration of DMSO in the reactions is equal to or less than 0.1%. Total and nonspecific binding was determined in the absence and presence of 10 μM almorexant. The total volume of each reaction is 200 μL (20 μL of diluted compounds, 80 μL of [^3H]— (1-(5-(2-fluoro-phenyl)-2-methyl-thiazol-4-yl)-1-((S)-2-(5-phenyl-(1,3,4)oxadiazol-2-ylmethyl)-pyrrolidin-1-yl)-methanone) diluted in PBS and 100 μL of the cell suspension). Reactions were run for 60 min at room temperature and terminated by filtration through GF/C filter plates (PerkinElmer, Cat. #6005174) presoaked in 0.3% polyethylenimine using the cell harvester (PerkinElmer Filtermate). The plates were washed 3 times by aspirating 30 ml PBS through the plates. Plates were dried in 55° C. oven for 60 min, scintillation fluid was added, and the radioactivity was counted on a Topcount (Packard). […]

human orexin 2 receptor, sequence (O43614 whole entry): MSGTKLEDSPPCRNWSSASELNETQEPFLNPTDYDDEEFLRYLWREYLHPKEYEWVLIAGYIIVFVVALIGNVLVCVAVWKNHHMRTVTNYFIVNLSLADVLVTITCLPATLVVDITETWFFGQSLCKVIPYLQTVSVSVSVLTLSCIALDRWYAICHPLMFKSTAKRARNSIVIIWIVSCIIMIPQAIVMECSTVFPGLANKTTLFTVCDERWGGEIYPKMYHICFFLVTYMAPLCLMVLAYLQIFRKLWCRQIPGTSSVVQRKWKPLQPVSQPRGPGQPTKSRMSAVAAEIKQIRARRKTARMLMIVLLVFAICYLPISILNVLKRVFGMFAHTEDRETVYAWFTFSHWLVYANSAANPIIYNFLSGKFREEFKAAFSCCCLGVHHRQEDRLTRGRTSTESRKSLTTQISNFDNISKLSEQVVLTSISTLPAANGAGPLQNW

| SMILES | Ki (human orexin 2 receptor) [nM] | Ki (rat orexin 1 receptor) [nM] |
| --- | --- | --- |
| C[C@@H]1[C@H]2C[C@@H](Oc3ccc(C(F)(F)F)cn3)[C@H](C2)N1C(=O)c1cc2ccccc2nc1OCCF [Example 205, [2-(2-fluoroethoxy)-3-quinolyl]-[(1R,2R,4S,5R)-2-methyl-5-[[5-(trifluoromethyl)-2-pyridyl]oxy]-3-azabicyclo[2.2.1]heptan-3-yl]methanone] | 5400 | 22 |
| COC[C@@H]1[C@@H]2CC[C@@H]([C@H](Oc3ccc(C(F)(F)F)cn3)C2)N1C(=O)c1nc(C)ccc1-n1nccn1 [Example 179, [(1R,2S,4S,5R)-2-(methoxymethyl)-5-[[5-(trifluoromethyl)-2-pyridyl]oxy]-3-azabicyclo[2.2.2]octan-3-yl]-[6-methyl-3-(triazol-2-yl)-2-pyridyl]methanone] | 2100 | 15 |
| O=C(c1c(F)cccc1-n1nccn1)N1[C@H](CO)[C@@H]2CC[C@H]1[C@H](Oc1ccc(C(F)(F)F)cn1)C2 [Example 177, [2-fluoro-6-(triazol-2-yl)phenyl]-[(1R,2S,4S,5R)-2-(hydroxymethyl)-5-[[5-(trifluoromethyl)-2-pyridyl]oxy]-3-azabicyclo[2.2.2]octan-3-yl]methanone] | > 10000 | 1150 |
| C[C@@H]1[C@H]2C[C@@H](Oc3ccc(C(F)(F)F)nc3)[C@H](C2)N1C(=O)c1ccccc1-n1nccn1 (relative stereo) [Example 41, (2-(2H-1,2,3-triazol-2-yl)phenyl)((1S*,3R*,4R*,6R*)-3-methyl-6-((6-(trifluoromethyl)pyridin-3-yl)oxy)-2-azabicyclo[2.2.1]heptan-2-yl)methanone] | > 10000 | 300 |
| CC1C2CC(Oc3ccc(C(F)(F)F)cn3)C(C2)N1C(=O)c1ccccc1-c1ncc(F)cn1 (single isomer, unassigned) [Example 19A, (2-(5-fluoropyrimidin-2-yl)phenyl)((1R*,3S*,4S*,6S*)-3-methyl-6-((5-(trifluoromethyl)pyridin-2-yl)oxy)-2-azabicyclo[2.2.1]heptan-2-yl)methanone] |  | 746 |
| CC(C)CC1C2CC(Oc3ccc(C(F)(F)F)cn3)C(C2)N1C(=O)c1cccc(F)c1-c1ncccn1 (racemic) [Example 211, (R/S)-(3-fluoro-2-pyrimidin-2-yl-phenyl)-[2-isobutyl-5-[[5-(trifluoromethyl)-2-pyridyl]oxy]-3-azabicyclo[2.2.1]heptan-3-yl]methanone] | 3300 |  |
| C[C@@H]1[C@H]2C[C@@H](Oc3ccc(C(F)(F)F)cn3)[C@H](C2)N1C(=O)c1ncccc1-n1nccn1 (relative stereo) [Example 23, (3-(2H-1,2,3-triazol-2-yl)pyridin-2-yl)((1S*,3R*,4R*,6R*)-3-methyl-6-((5-(trifluoromethyl)pyridin-2-yl)oxy)-2-azabicyclo[2.2.1]heptan-2-yl)methanone] | 2400 |  |

Continued by falling Ki (human orexin 2 receptor), values first:

| Ki (human orexin 2 receptor) [nM] | Ki (rat orexin 1 receptor) [nM] | SMILES |
| --- | --- | --- |
| 1700 | 32 | COC[C@@H]1[C@@H]2CC[C@@H]([C@H](Oc3ccc(C(F)(F)F)cn3)C2)N1C(=O)c1nc(C)ccc1-c1ncccn1 [Example 180, [(1R,2S,4S,5R)-2-(methoxymethyl)-5-[[5-(trifluoromethyl)-2-pyridyl]oxy]-3-azabicyclo[2.2.2]octan-3-yl]-(6-methyl-3-pyrimidin-2-yl-2-pyridyl)methanone] |
| 1100 |  | [2H]C([2H])([2H])[C@]1([2H])[C@H]2C[C@@H](Oc3ccc(C(F)(F)F)cn3)[C@H](C2)N1C(=O)c1ncc(C)cc1-n1nccn1 [Example 166, [(1R,2R,4S,5R)-2-deuterio-2-(trideuteriomethyl)-5-[[5-(trifluoromethyl)-2-pyridyl]oxy]-3-azabicyclo[2.2.1]heptan-3-yl]-[5-methyl-3-(triazol-2-yl)-2-pyridyl]methanone] |
| 1010 | 4 | C[C@@H]1[C@H]2C[C@@H](Oc3ccc(C(F)(F)F)c(F)n3)[C@H](C2)N1C(=O)c1ccccc1-c1ncccn1 [Example 219, (2-(pyrimidin-2-yl)phenyl)((1S,3R,4R,6R)-3-methyl-6-((6-fluoro-5-(trifluoromethyl)pyridin-2-yl)oxy)-2-azabicyclo[2.2.1]heptan-2-yl)methanone] |
| 879 |  | CC1C2CC(Oc3ccc(C(F)(F)F)cn3)C(C2)N1C(=O)c1cc(F)ccc1-c1ncccn1 (single isomer, unassigned) [Example 18B, (5-fluoro-2-(pyrimidin-2-yl)phenyl)((1S*,3R*,4R*,6R*)-3-methyl-6-((5-(trifluoromethyl)pyridin-2-yl)oxy)-2-azabicyclo[2.2.1]heptan-2-yl)methanone] |
| 602 |  | C[C@@H]1[C@H]2C[C@@H](Oc3ccc(C(F)(F)F)cn3)[C@H](C2)N1C(=O)c1ccccc1-c1ncccn1 (relative stereo) [Example 33, ((1S*,3R*,4R*,6R*)-3-methyl-6-((5-(trifluoromethyl)pyridin-2-yl)oxy)-2-azabicyclo[2.2.1]heptan-2-yl)(2-(pyrimidin-2-yl)phenyl)methanone] |
| 316 |  | CCC1C2CC(Oc3ccc(C(F)(F)F)cn3)C(C2)N1C(=O)c1ccccc1-c1ncccn1 (racemic) [Example 214, (R/S)-[2-ethyl-5-[[5-(trifluoromethyl)-2-pyridyl]oxy]-3-azabicyclo[2.2.1]heptan-3-yl]-(2-pyrimidin-2-ylphenyl)methanone] |
| 154 |  | Cc1ccc(-n2nccn2)c(C(=O)N2C(C)C3CC(Nc4cnc(C(F)(F)F)cn4)C2C3)n1 (single isomer, unassigned) [Example 6B, (6-methyl-3-(2H-1,2,3-triazol-2-yl)pyridin-2-yl)((1S*,3S*,4S*,6R*)-3-methyl-6-((5-(trifluoromethyl)pyrazin-2-yl)amino)-2-azabicyclo[2.2.1]heptan-2-yl)methanone] |
